Eleven compounds from US12365687B2 (Hoffmann-La Roche Inc., priority 2021, dated 2025) can be followed below.

Structures are written as SMILES. A value given as a limit tells only on which side of the number the result lay.

The target of experiment [1] is human GABAA α2β2γ1 receptor (Homo sapiens (Human), UniProt P47869+Q8N1C3). Kind of experiment: Radioligand binding assay for γ1-containing GABAA subtypes, [3H]RO7239181 competition (α2β2γ1). The protocol: (§1) The affinity of compounds at GABAA γ1 subunit-containing receptors was measured by competition for [^3H]RO7239181 (67.3 Ci/mmol; Roche) binding to membranes from HEK293F cells (ThermoFisher R79007) expressing human (transiently transfected) receptors of composition α5β2γ1, α2β2γ1, α1β2γ1.
(§2) Harvested pellets from HEK293F cells expressing the different GABAA receptor subtypes were resuspended in Mannitol Buffer pH 7.2-7.4 (Mannitol 0.29 M, Triethylamine 10 mM, Acetic acid 10 mM, EDTA 1 mM plus protease inhibitors (20 tablets Complete, Roche Diagnostics Cat. No. 05 056 489 001 per liter)), washed two times and then resuspended at 1:10 to 1:15 dilution in the same buffer. Cell disruption was performed by stirring the suspension in a Parr vessel #4637 at 435 psi for 15 minutes, and then the suspensions were centrifuged at 1000×g for 15 minutes at 4° C. (Beckman Avanti J-HC; rotor JS-4.2). The supernatant (S1) was transferred in a 2 l Schott flask and the pellet (P1) was resuspended with Mannitol Buffer up to 175 ml. The resuspended pellet was transferred into a 250 ml Corning centrifugal beaker and centrifuged at 1500×g for 10 minutes at 4° C. (Beckman Avanti J-HC; rotor JS-4.2). The supernatant (S1) was then transferred in the 2 l Schott flask and the pellet was discarded. The supernatants (S1) were centrifuged in 500 ml Beckman polypropylene centrifugal beaker at 15′000×g for 30 minutes at 4° C. (Beckman Avanti J-20 XP; rotor JLA-10.500). The pellet (P2) was resuspended with Mannitol Buffer 1:1 and frozen at −80° C. The supernatant (S2) was centrifuged in 100 ml Beckman polypropylene centrifugal tubes at 48000×g for 50 minutes at 4° C. (Beckman Avanti J-20 XP; rotor JA-18). The supernatant (S3) was discarded and the pellet (P3) was resuspended with 1:1 Mannitol Buffer. The P2 and P3 protein concentration was determined with the BIORAD Standard assay method with bovine serum albumin as standard and measured on the NANO-Drop 1000. The membrane suspension was aliquots (500 μl per tube) and stored at −80° C. until required.
(§3) Membrane homogenates were resuspended and polytronised (Polytron PT1200E Kinematica AG) in Potassium Phosphate 10 mM, KCl 100 mM binding buffer at pH 7.4 to a final assay concentration determined with a previous experiment.
(§4) Assays were incubated to equilibrium for 1 hour at 4° C. and then, membranes were filtered onto unifilter (96-well white microplate with bonded GF/C filters preincubated 20-50 minutes in 0.3% Polyethylenimine) with a Filtermate 196 harvester (Packard BioScience) and washed 4 times with cold Potassium Phosphate 10 mM pH 7.4, KCl 100 mM binding buffer. After anhydrousing, filter-retained radioactivity was detected by liquid scintillation counting. Ki values were calculated using Excel-Fit (Microsoft) and are the means of two determinations.

Experiment [2] addresses α2β2γ1 GABAA receptor subtype (Homo sapiens (Human), UniProt P47869+Q8N1C3). Kind of experiment: Two-electrode voltage clamp electrophysiology in Xenopus oocytes expressing GABAA receptors (modulation of GABA EC20 current). It counts as cell-based. The conditions noted are these: for Efficacy (GABA)%: % modulation of GABA EC20 = 100*(Fold increase-1), α2β2γ1 oocytes, compound at approx. 30-fold Ki; for Fold increase h-GABA-A α2β2γ1 oocyte @ 30-fold Ki: Xenopus oocytes expressing α2β2γ1, compound at approx. 30-fold its Ki α2β2γ1, GABA EC20 current; for potentiation of the GABA-induced current: α2β2γ1 GABAA receptor subtype expressing oocytes, GABA EC20. The procedure: Xenopus laevis oocytes at maturation stages V-VI were used for the expression of cloned mRNA encoding GABAA receptor subunits. Oocytes ready for RNA micro-injection were bought from Ecocyte, Castrop-Rauxel, Germany and stored in modified Barth's medium (composition in mM: NaCl 88, KCl 1, NaHCO3 2.4, HEPES 10, MgSO4 0.82, CaNO3 0.33, CaCl2 0.33, pH=7.5) at 20° C. until the experiment.
Oocytes were plated in 96-well plates for microinjection using the Roboinject automated instrument (MultiChannelSystems, Reutlingen, Germany). Approximately 50 nL of an aqueous solution containing the RNA transcripts for the subunits of the desired GABAA receptor subtype was injected into each oocyte. […] Oocytes were kept in modified Barth's medium (composition in mM: NaCl 88, KCl 1, NaHCO3 […], HEPES 10, MgSO4 0.82, CaNO3 0.33, CaCl2 0.33, pH=7.5) at 20° C. until the experiment.
Electrophysiological experiments were performed using the Roboocyte instrument (MultiChannelSystems, Reutlingen, Germany) on days 3 to 5 after the micro-injection of mRNA. During the experiment the oocytes were constantly superfused by a solution containing (in mM) NaCl 90, KCl 1, HEPES 5, MgCl2 1, CaCl2 1 (pH 7.4). Oocytes were impaled by two glass microelectrodes (resistance: 0.5-0.8 MΩ) which were filled with a solution containing KCl 1M+K-acetate 1.5 M and voltage-clamped to −80 mV. The recordings were performed at room temperature using the Roboocyte two-electrode voltage clamp system (Multichannelsystem). After an initial equilibration period of 1.5 min GABA was added for 1.5 min at a concentration evoking approximately 20% of a maximal current response (EC20). After another rest interval of 2.5 min GABA was again added evoking a response of similar amplitude and shape. […] Current traces were recorded at a digitization rate of 10 Hz during and shortly before and after the GABA application.
Each compound and concentration was tested on at least 3 oocytes. Different oocytes were used for different compound concentrations.
For the analysis, the digitized current traces of the first and second GABA response were superimposed and, if necessary, rescaled to equal maximal amplitudes. The ratio between the two responses during the time interval of test compound application was calculated point by point. The extremum of the resulting “ratio trace” was taken as the efficacy (“Fold increase”) of the compound expressed as “% modulation of GABA EC20” (100*(Fold increase-1)).
(In general: In two-electrode clamp one electrode senses voltage and the other passes current.)

Experiment [3] deals with human GABAA α1β3γ2 receptor (Homo sapiens (Human), UniProt P14867+P18507). Kind of experiment: Radioligand binding assay for γ2-containing GABAA subtypes, [3H]Flumazenil competition (α1β3γ2). Particulars: for γ2/γ1 Selectivity Ratio: Ki α1β3γ2 (nM)/Ki α2β2γ1 (nM); for LogSel: Log[Ki α1β3γ2 (nM)/Ki α2β2γ1 (nM)]. The protocol:
The affinity of compounds at GABAA γ2 subunit-containing receptors was measured by competition for [^3H]Flumazenil (81.1 Ci/mmol; Roche) binding to HEK293F cells expressing human (transiently transfected) receptors of composition α1β3γ2.
Harvested pellets from HEK293F cells expressing the different GABAA γ2 receptor subtypes were resuspended in Mannitol Buffer pH 7.2-7.4 and processed as described above for the cells expressing the GABAA γ1 subunit-containing receptors.
Assays were incubated to equilibrium for 1 hour at 4° C. and harvested onto GF/C uni-filters (Packard) by filtration using a Packard harvester and washing with ice-cold wash buffer (50 mM Tris; pH 7.5). After anhydrousing, filter-retained radioactivity was detected by liquid scintillation counting. Ki values were calculated using Excel-Fit (Microsoft) and are the means of two determinations.

The target in experiment [4] is human GABAA α5β2γ1 receptor (Homo sapiens (Human), UniProt P31644+Q8N1C3). Kind of experiment: Radioligand binding assay for γ1-containing GABAA subtypes, [3H]RO7239181 competition (α5β2γ1). The protocol: as §1, §2, §3, §4
The mark [5] stands for this setting: Ki h-GABAA α2β2γ1, [3H]RO7239181 competition binding, human GABAA α2β2γ1.
Where [6] appears, read: Ki h-GABAA α2β2γ1, displacement of [3H]RO7239181, membranes of HEK293F cells expressing human receptors, means of two determinations.
[7] abbreviates: Ki h-GABAA α2β2γ1, Table 3, reference compounds.

In general, Ki refers to a dissociation constant, usually derived from enzyme kinetics or from competition with a known ligand. A low value points to higher affinity. Regarding `C[C@@H]1N=C(c2c(F)cccc2F)c2c(ccc(C(F)(F)F)c2Cl)-n2nc(NC(=O)N3C4COCC3C4)nc21` (single isomer, unassigned) [Example 130], the Ki in experiment [1] (setting [5]) stood at 36.6 nM. In experiment [1] (setting [6]), this compound registered a Ki of 36.6 nM. Further, in experiment [2], the “Efficacy (GABA)%” value amounted to 116% and the “Fold increase h-GABA-A α2β2γ1 oocyte @ 30-fold Ki” value amounted to 2.16. For the same compound, in experiment [3], the Ki amounted to 4190 nM, the “γ2/γ1 Selectivity Ratio” value turned out to be 114.5 and the LogSel is recorded as 2.06. For the same compound, the affinity in experiment [4], expressed as Ki, was 6.9 nM.

For the compound `C[C@@H]1N=C(c2c(F)cccc2F)c2c(ccc(C(F)(F)F)c2Cl)-n2nc(NC(=O)N3C4CC3CS(=O)(=O)C4)nc21` (single isomer, unassigned) [Example 134], the affinity in experiment [1] (setting [5]), expressed as Ki, was 19.3 nM. Besides, the Ki in experiment [1] (setting [6]) was 19.3 nM. In experiment [2], the “Efficacy (GABA)%” value was found to be 101% and the “Fold increase h-GABA-A α2β2γ1 oocyte @ 30-fold Ki” value is 2.01. Moreover, in experiment [3], the affinity corresponds to a Ki of 1480 nM, the “γ2/γ1 Selectivity Ratio” value is reported as 76.7 and the LogSel is on record as 1.88. This compound also displayed a Ki in experiment [4] of 2.36 nM.

On to `Cc1nnc2n1-c1ccc(Cl)cc1C(c1ccccc1)=NC2` [Alprazolam, reference compound], for which, in experiment [3] (Table 3), the LogSel was −2.3.

For `Fc1cccc(F)c1C1=NCc2nc(C(F)F)cn2-c2ccc(Br)c(Cl)c21` [Example 3, 8-bromo-7-chloro-2-(difluoromethyl)-6-(2,6-difluorophenyl)-4H-benzo[f]imidazo[1,2-a][1,4]diazepine], the Ki in experiment [1] (setting [5]) amounted to 30.2 nM; in experiment [1] (setting [6]), 30.2 nM; in experiment [3], 455 nM; in experiment [4], 1.28 nM. In addition, the “γ2/γ1 Selectivity Ratio” value in experiment [3] came out at 15.0. Moreover, the LogSel in experiment [3] worked out at 1.18.

On to `C[C@@H]1N=C(c2c(F)cccc2F)c2c(ccc(C(F)(F)F)c2Cl)-n2nc(C(=O)N3CC(OC(F)F)C3)nc21` [Example 51, [3-(difluoromethoxy)azetidin-1-yl]-[(4S)-7-chloro-6-(2,6-difluorophenyl)-4-methyl-8-(trifluoromethyl)-4H-[1,2,4]triazolo[1,5-a][1,4]benzodiazepin-2-yl]methanone], for which, in experiment [3], the Ki came to 1560 nM, the “γ2/γ1 Selectivity Ratio” value was found to be 53.3 and the LogSel stood at 1.73.

As to `C[C@@H]1N=C(c2ncccc2F)c2c(ccc(C(F)(F)F)c2Cl)-n2nc(C(=O)NCCF)nc21` [Example 152, (4S)-7-chloro-N-(2-fluoroethyl)-6-(3-fluoro-2-pyridyl)-4-methyl-8-(trifluoromethyl)-4H-[1,2,4]triazolo[1,5-a][1,4]benzodiazepine-2-carboxamide], the Ki in experiment [1] (setting [5]) was 89.9 nM; in experiment [1] (setting [6]), 89.9 nM; in experiment [3], greater than 30000 nM; in experiment [4] it was 20.4 nM. Further, the “γ2/γ1 Selectivity Ratio” value in experiment [3] came to 333.7. The LogSel in experiment [3] amounted to 2.52.

For the compound `CN1C(=O)CN=C(c2ccccc2F)c2cc([N+](=O)[O-])ccc21` [Flunitrazepam, reference compound], in experiment [2], the “potentiation of the GABA-induced current” value is on record as roughly 60%.

With `Cc1ncc2n1-c1ccc(Cl)cc1C(c1ccccc1F)=NC2` [Midazolam, reference compound], the “potentiation of the GABA-induced current” value in experiment [2] was roughly 60%. The same compound displayed a LogSel in experiment [3] (Table 3) of −2.2.

Turning to `CN(C)C(=O)c1nc2n(n1)-c1ccc(Cl)cc1C(c1ccccc1F)=NC2` [RE-A, reference compound], the Ki in experiment [1] (setting [7]) came out at 276 nM; in experiment [3], 35.6 nM. The “γ2/γ1 Selectivity Ratio” value in experiment [3] (Table 3) was found to be 0.13.

As to `CCOC(=O)c1nc2n(n1)-c1ccc(Cl)cc1C(c1ccccc1F)=NC2` [RE-B, reference compound], the Ki in experiment [1] (setting [7]) was found to be 18.4 nM; in experiment [3], 3.4 nM. The “γ2/γ1 Selectivity Ratio” value in experiment [3] (Table 3) was found to be 0.18.

Take `Cc1nnc2n1-c1ccc(Cl)cc1C(c1ccccc1Cl)=NC2` [Triazolam, reference compound]: in experiment [2], the “potentiation of the GABA-induced current” value is roughly 60%. In experiment [3] (Table 3), this compound showed a LogSel of −1.5.
